Results taken from patent publication US20110269790A1, “NOVEL THIENOPYRIDINES AS PHARMACOLOGICALLY ACTIVE AGENTS” (priority 2009, published 2011).
≈ marks a conversion by molar mass, not a printed value.

Columns and labels:
[1] = system: crude intestinal α-glucosidase; experiment: In-vitro mammalian (rat intestinal) α-glucosidase inhibition assay; format: biochemical
Source text: Chemicals: α-Glucosidase [(EC 3.2.1.20) Type I: from bakers yeast], rat intestinal acetone powder (as a source of crude intestinal α-glucosidase), α-amylase [EC 3.2.1.1) Type VI B: from porcine pancreas], p-nitrophenyl α-D-glucopyranoside, 3,5-dinitro salicylic acid, soluble potato starch and 1-deoxyrojirimycine, were purchased from Sigma Chemical Co., St Louis, Mo., USA. Other chemicals of analytical grade were procured from indigenous manufacturers.
In-vitro a-Glucosidase Inhibition Assay: Yeast and intestinal a-glucosidase inhibitory activities were determined as per reported methods (Babu et al., 2004; Mc Dougall et al., 2005). Rat intestinal acetone powder in normal saline (100% w/v) was sonicated properly and the supernatant was used as a source of crude intestinal a-glucosidase after centrifugation. In brief, 20 μl, of test samples (100 mg/ml DMSO solution) were reconstituted in 100 μl of 100 mM-Phosphate buffer (pH 6.8) in a 96-well microplate and incubated with 50 μl yeast a-glucosidase (0.76 μ/ml in same buffer) or crude intestinal a-glucosidase for 5 min before 50-μl substrate (5 mM, […] prepared in same buffer) was added. Release of p-nitrophenyol was measured at 405 nm spectrophotometrically (Spectra Mas Plus 384, Molecular Device corporation, Sunnyvale, Calif., USA) 5 min after incubation with substrate, individual blank for test samples were prepared to correct background absorbance where the substrate was replaced with 50 μl of buffer. The control sample contained 20 μl DMSO in place of test samples. The percentage of enzyme inhibition was calculated as (A−B/A)×100 where A is represents the absorbance of the control without test samples, and B represents the absorbance in the presence of test samples. […] The IC50 values were calculated by applying logarithmic regression analysis from the mean inhibitory values.

[2] = system: A431 (Skin cancer) cell lines; experiment: MTT assay, A431; format: cell-based; conditions: Homo sapiens, A-431; MTT, 48 hrs; read-out: A431 cell lines IC50
Procedure: (§1) A431 (Skin cancer), Colo-205 (Colon cancer), A549 (Lung cancer) cell lines were obtained from National Center for Cell science (NCCS), Pune, India. DMEM (Dulbeccos Modified Eagles Medium), MTT [3-(4,5-dimethylthiazol-2-yl)-2,5-diphenyl tetrazolium bromide], Trypsin, EDTA were purchased from Sigma Chemicals Co (St. Louis, Mo.), Fetal bovine serum were purchased from Arrow labs, 96 well flat bottom tissue culture plates were purchased from Tarson.
(§2) A431, Colo-205, A549 cell lines were grown as adherent cells in DMEM media supplemented with 10% fetal bovine serum, 100 μg/ml penicillin, 200 μg/ml streptomycin, 2 mM L-glutamine, and culture was maintained in a humidified atmosphere with 5% CO2. Stock solution of 10 mg/ml was prepared for test molecules in DMSO. From the stock, various dilutions were made with sterile water to get required concentration. A431, Colo-205, A549 cell lines were seeded at a density of 1×10^4 cells (cell number was determined by Trypan blue exclusion dye method) per each well in 100 μl of DMEM supplemented with 10% FBS. 12 hrs after seeding, above media was replaced with fresh DMEM supplemented with 10% FBS. Then, 10 μl sample from above stock solutions were added to each well in triplicates which gives final concentration of 100, 50, 25, 10 μg/well. The above cells were incubated for 48 hrs at 37° C. with 5% CO2. After 48 hrs incubation the above media was replaced with 100 μl of fresh DMEM with out FBS and to this 10 μl of MTT (5 mg dissolved in 1 ml of PBS) was added and incubated for 3 hrs at 37° C. with 5% CO2. After 3 hrs of incubation, the above media was removed with multi channel pipette, then 200 μl of DMSO was added to each well and incubated at 37° C. for 15 min. Finally, the plate was read at 570 nm using spectrophotometer (Spectra Max, Molecular devices).

Colo-205 (Colon cancer) = experiment: MTT assay, Colo-205; format: cell-based; conditions: Homo sapiens, COLO 205; MTT, 48 hrs; read-out: Colo-205 IC50
Procedure: as §1, §2

A549 (Lung cancer) = experiment: MTT assay, A549; format: cell-based; conditions: Homo sapiens, A549; MTT, 48 hrs; read-out: A549 IC50
Procedure: as §1, §2

Wistar rats = experiment: Carrageenan induced paw edema model; format: in vivo, rat; conditions: Rattus norvegicus, test compounds 100 mg/kg oral, Indomethacin 10 mg/kg oral, 3 hrs after Carrageenan
Procedure: Male Albino Wistar rats of 150-180 grams were used for the experiments.
Anti-inflammatory activity of test compounds was evaluated in Wistar rats employing the method of Winter et al (1963) and Diwan et al (1989). Male Wistar rats were used for the study. […] The different test compounds were administered to the animals in the test group at the dose of 100 mg/kg, by oral route. Animals in the standard group received Indomethacin at the dose of 10 mg/kg, by oral route. All test and standard compounds were administered as 1% gum acacia suspension. Rats in the control group received the vehicle solution without drugs. One hour after test drugs administration, rats in all the groups were challenged with 0.1 ml of 1% Carrageenan in the sub plantar region of right hind paw. A zero hour paw volume was measured for all the rats using digital plethysmometer (Ugo Basile, Italy) before the administration of carrageenan for all groups. Paw volumes were again measured 3 hrs after the challenge of Carrageenan. The percent inhibition of paw volume for each rat in treated groups was calculated by comparing with mean paw volume of control group and expressed as mean (±SE) percent inhibition of paw volume for each test. In a preliminary study the compounds that have shown good activity were evaluated for dose response study by using above procedure.

mice = experiment: Adenosine mediated bronchoconstriction and lung inflammation in an allergic mouse model; format: in vivo; set-up: Total count: unit not given here; conditions: BAL fluid cells; 100 mg/kg oral
Procedure: Thienopyridines were proven as potent cytotoxic and anti-inflammatory agents in the previous experimental results. In cytotoxic MTT assay, activity of these molecules may be due to the involvement of adenosine receptors. Further, to find the bronchodilatory activity of these moieties and to find the involvement of adenosine receptors in their action, non-invasive and invasive adenosine mediated bronchoconstriction and lung inflammation in an allergic mouse model was performed.
Male mice, 6-8 weeks of age, free of specific pathogens were obtained from National Institute of Nutrition. The animals were maintained on a ragweed-free diet. All experimental protocols used in this study were under a protocol approved by animal ethical committee. Sensitization was performed according to the modified procedure described by Fan et al, 2002. Mice were sensitized on days 1 and 6 with i.p. injections of ragweed allergen (200 μg/200 μl of water for injection). Non-sensitized control animals received only water for injection with the same volumes. Ten days after sensitization, the mice were placed in plexiglas chamber and challenged with 0.5% ragweed or with 0.9% saline as a control for twenty minutes both in the morning and evening for three days. Then mice were divided into different groups consisting of six animals each. The groups including a control without sensitization; a sensitized group and a standard group along with groups of the test molecules were separated. Twenty-four hours after last challenge with ragweed, the mice were given an oral dose of test molecules and theophylline (100 mg/kg body weight) as acacia suspension. Two hours after administration of the oral dose, the mice were challenged with adenosine solution (24 mg/ml). The variation in respiration was recorded after anaesthetizing them with pentobarbitone sodium (0.1 ml 200 mg/ml ip) using kymograph. Then, mice were sacrificed and trachea was cannulated to collect the bronchoalveolar lavage fluid. This was performed by pumping 1 ml phosphate buffered saline into lungs through tracheal cannula and collecting the sample. Analysis of BAL fluid was performed to get the cellular differentials. The BAL fluid was centrifugated at 1500 rpm for six minutes at room temparature. After removing the supernatant, BAL cells were resuspended in 1 ml of phosphate buffered saline. Total cells were then counted manually in a hemocytometer chamber. A differential count of at least 300 cells was made according to the standard morphologic criteria and results were mentioned in table.

Question: Which “Mammalian α-glucosidase inhibitory activity (in words)” value [1] does the source give for Cc1sc2nc3c(c(N)c2c1C)CCC(C)C3 (stereo not drawn) [BN-3, 2,3,7-Trimethyl-5,6,7,8-tetrahydrothieno[2,3-b]quinolin-4-amine] here?
Answer: moderate inhibitory activity

Question: And the “Mammalian α Glucosidase Inhibition (Mean ± S.E)” value ([1]; highest concentration 5 mg/ml)?
Answer: 46.07 ± 0.9%

Question: What about the IC50 [2] of the same compound?
Answer: 33.8 µg/mL (≈ 137 µM)

Question: And the IC50 (Colo-205 (Colon cancer))?
Answer: 100 µg/mL (≈ 406 µM)

Question: What about the IC50 (A549 (Lung cancer)) of the same compound?
Answer: 43.6 µg/mL (≈ 177 µM)

Question: What about the melting point of the same compound?
Answer: 220 °C

Question: What about the change in vivo at 100 mg/kg (Wistar rats; read-out: % Increase in Paw Volume) of the same compound?
Answer: 81.4 ± 21%

Question: What about the inhibition in vivo at 100 mg/kg (Wistar rats; read-out: % Inhibition (paw volume)) of the same compound?
Answer: 23.2 ± 5.15%

Question: What about the “Differential count (%) Eosinophils” value (mice) of the same compound?
Answer: 14%

Question: What about the “Differential count (%) Lymphocytes” value (mice) of the same compound?
Answer: 75%

Question: What about the “Differential count (%) Monocytes” value (mice) of the same compound?
Answer: 15%

Question: What about the Total count (mice) of the same compound?
Answer: 14.5
